Measurements from patent US20250059198A1, “BRM DEGRADING COMPOUNDS AND ASSOCIATED METHODS OF USE” (Arvinas Operations, Inc., priority 2021, published 2025).

Target: T1, BRM (Homo sapiens, UniProt P51531)
T1 construct: Western Blot Screen of BRM Degradation in SW1573 Cells; endogenous in cells; host or cells: SW1573 cells
Assay: BRM degradation (Dmax and DC50) in SW1573 cells, Western blot screen / In-Cell Western screen
Assay type: cell-based
Conditions: overnight (18-20 hours) treatment; for Dmax: read-out: Dmax (%)** (% degraded)
How it was run: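 SW1573 cells were treated with compound for 18–20 h (final 0.1% DMSO). BRM was quantified either by Western blot of RIPA lysates or by fixed-cell In-Cell Western (LI-COR, 800/680 nm), each normalised to alpha-tubulin, giving Dmax and DC50.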

T1 sequence (P51531 whole entry): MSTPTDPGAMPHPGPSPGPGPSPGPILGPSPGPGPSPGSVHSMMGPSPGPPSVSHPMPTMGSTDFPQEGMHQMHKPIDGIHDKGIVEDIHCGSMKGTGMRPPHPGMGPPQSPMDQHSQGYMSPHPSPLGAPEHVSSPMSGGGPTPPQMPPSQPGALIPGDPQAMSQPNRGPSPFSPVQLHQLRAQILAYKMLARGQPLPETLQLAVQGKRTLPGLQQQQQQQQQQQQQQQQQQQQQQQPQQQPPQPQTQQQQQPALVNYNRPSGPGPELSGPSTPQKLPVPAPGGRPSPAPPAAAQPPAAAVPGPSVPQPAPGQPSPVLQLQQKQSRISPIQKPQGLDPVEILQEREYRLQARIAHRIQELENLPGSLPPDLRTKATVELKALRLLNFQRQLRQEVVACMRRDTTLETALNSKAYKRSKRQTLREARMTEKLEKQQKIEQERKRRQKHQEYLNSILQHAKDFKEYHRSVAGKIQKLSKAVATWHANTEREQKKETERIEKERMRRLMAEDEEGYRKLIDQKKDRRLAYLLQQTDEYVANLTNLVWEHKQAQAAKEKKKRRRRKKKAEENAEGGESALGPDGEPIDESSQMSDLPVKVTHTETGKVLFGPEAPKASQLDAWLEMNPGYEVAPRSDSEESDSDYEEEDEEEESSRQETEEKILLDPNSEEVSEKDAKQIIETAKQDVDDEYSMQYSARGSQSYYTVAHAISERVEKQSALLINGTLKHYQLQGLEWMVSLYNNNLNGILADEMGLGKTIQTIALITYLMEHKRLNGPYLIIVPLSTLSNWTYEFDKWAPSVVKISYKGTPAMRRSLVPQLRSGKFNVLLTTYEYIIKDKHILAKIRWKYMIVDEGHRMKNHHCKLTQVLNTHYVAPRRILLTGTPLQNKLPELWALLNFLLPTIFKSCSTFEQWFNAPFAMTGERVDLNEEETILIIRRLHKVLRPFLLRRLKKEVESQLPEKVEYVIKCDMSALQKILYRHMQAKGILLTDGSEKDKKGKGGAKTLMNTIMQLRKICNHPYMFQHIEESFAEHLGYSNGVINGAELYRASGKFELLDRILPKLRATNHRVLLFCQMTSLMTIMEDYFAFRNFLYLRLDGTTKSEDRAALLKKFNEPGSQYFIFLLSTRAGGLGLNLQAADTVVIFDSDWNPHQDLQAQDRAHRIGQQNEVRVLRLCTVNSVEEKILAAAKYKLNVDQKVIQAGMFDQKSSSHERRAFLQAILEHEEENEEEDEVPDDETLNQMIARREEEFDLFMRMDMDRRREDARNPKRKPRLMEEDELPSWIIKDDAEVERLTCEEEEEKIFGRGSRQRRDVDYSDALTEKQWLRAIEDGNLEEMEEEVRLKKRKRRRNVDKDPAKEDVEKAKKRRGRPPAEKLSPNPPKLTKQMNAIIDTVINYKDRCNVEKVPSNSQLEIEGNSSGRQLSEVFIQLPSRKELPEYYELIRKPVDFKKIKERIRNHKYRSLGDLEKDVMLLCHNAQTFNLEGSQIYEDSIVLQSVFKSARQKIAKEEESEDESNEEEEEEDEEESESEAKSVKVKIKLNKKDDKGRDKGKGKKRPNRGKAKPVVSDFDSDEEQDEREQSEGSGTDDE

| SMILES | DC50 [nM] | Dmax [%] |
| --- | --- | --- |
| Cc1ncsc1-c1ccc([C@H](C)NC(=O)[C@@H]2C[C@@H](O)CN2C(=O)[C@@H](c2cc(N3CCC(CN4CCC(N[C@H]5C[C@H](Oc6cc(N7C8CCC7CN(c7cc(-c9ccccc9O)nnc7N)C8)ccn6)C5)CC4)CC3)no2)C(C)C)cc1 [Compound 10, (2S,4R)-4-hydroxy-N-[(1S)-1-[4-(4-methyl-1,3-thiazol-5-yl)phenyl]ethyl]-1-[(2R)-3-methyl-2-(3-{4-[(4-{[(1rs,3rs)-3-[(4-{3-[3-amino-6-(2-hydroxyphenyl)pyridazin-4-yl]-3,8-diazabicyclo[3.2.1]octan-8-yl}pyridin-2-yl)oxy]cyclobutyl]amino}piperidin-1-yl)methyl]piperidin-1-yl}-1,2-oxazol-5-yl)butanoyl]pyrrolidine-2-carboxamide] | < 2.5 | > 75 |
| Cc1ncsc1-c1ccc([C@H](C)NC(=O)[C@@H]2C[C@@H](O)CN2C(=O)C(c2cc(N3CCC(OC(=O)N4CCC(O[C@H]5C[C@H](Oc6cc(N7CCN(c8cc(-c9ccccc9O)nnc8N)CC7)ccn6)C5)CC4)CC3)no2)C(C)C)cc1 (stereo partly drawn) [Compound 145, 1-(5-{1-[(2S,4R)-4-hydroxy-2-{[(1S)-1-[4-(4-methyl-1,3-thiazol-5-yl)phenyl]ethyl]carbamoyl}pyrrolidin-1-yl]-3-methyl-1-oxobutan-2-yl}-1,2-oxazol-3-yl)piperidin-4-yl 4-[(1r,3r)-3-[(4-{4-[3-amino-6-(2-hydroxyphenyl)pyridazin-4-yl]piperazin-1-yl}pyridin-2-yl)oxy]cyclobutoxy]piperidine-1-carboxylate] | 2.5 to 10 | > 75 |
| Cc1ncsc1-c1ccc([C@H](C)NC(=O)[C@@H]2C[C@@H](O)CN2C(=O)[C@@H](c2cc(OCCN3CCN(CCOc4cc(N5C6CCC5CN(c5cc(-c7ncccc7O)nnc5N)C6)ccn4)[C@H](C)C3)no2)C(C)C)cc1 [Compound 149, (2S,4R)-1-[(2R)-2-(3-{2-[(3R)-4-{2-[(4-{3-[3-amino-6-(3-hydroxypyridin-2-yl)pyridazin-4-yl]-3,8-diazabicyclo[3.2.1]octan-8-yl}pyridin-2-yl)oxy]ethyl}-3-methylpiperazin-1-yl]ethoxy}-1,2-oxazol-5-yl)-3-methylbutanoyl]-4-hydroxy-N-[(1S)-1-[4-(4-methyl-1,3-thiazol-5-yl)phenyl]ethyl]pyrrolidine-2-carboxamide] | ≥ 30 | – |
| Cc1ncsc1-c1ccc([C@H](C)NC(=O)[C@@H]2C[C@@H](O)CN2C(=O)[C@@H](c2cc(N3CCC(CN4CCC(O[C@H]5C[C@H](N6CCC(Cc7cn(-c8cc(-c9ccccc9O)nnc8N)cn7)CC6)C5)CC4)CC3)no2)C(C)C)cc1 [Compound 130, (2S,4R)-4-hydroxy-N-[(1S)-1-[4-(4-methyl-1,3-thiazol-5-yl)phenyl]ethyl]-1-[(2R)-3-methyl-2-{3-[4-({4-[(1r,3r)-3-[4-({1-[3-amino-6-(2-hydroxyphenyl)pyridazin-4-yl]-1H-imidazol-4-yl}methyl)piperidin-1-yl]cyclobutoxy]piperidin-1-yl}methyl)piperidin-1-yl]-1,2-oxazol-5-yl}butanoyl]pyrrolidine-2-carboxamide] | 10 to 30 | > 75 |
| Cc1ncsc1-c1ccc([C@H](C)NC(=O)[C@@H]2C[C@@H](O)CN2C(=O)[C@@H](c2cc(N3CCC(CN4CC[C@H](Oc5cc(N6C7CCC6CN(c6cc(-c8ccccc8O)nnc6N)C7)ccn5)[C@@H](F)C4)CC3)no2)C(C)C)cc1 [Compound 60, (2S,4R)-1-[(2R)-2-[3-(4-{[(3S,4S)-4-[(4-{3-[3-amino-6-(2-hydroxyphenyl)pyridazin-4-yl]-3,8-diazabicyclo[3.2.1]octan-8-yl}pyridin-2-yl)oxy]-3-fluoropiperidin-1-yl]methyl}piperidin-1-yl)-1,2-oxazol-5-yl]-3-methylbutanoyl]-4-hydroxy-N-[(1S)-1-[4-(4-methyl-1,3-thiazol-5-yl)phenyl]ethyl]pyrrolidine-2-carboxamide] | < 2.5 | > 75 |
| Cc1ncsc1-c1ccc([C@H](C)NC(=O)[C@@H]2C[C@@H](O)CN2C(=O)[C@@H](c2cc(N3CCC(CN4CCC5(CC4)CC(N4CCO[C@H](CN6C7CCC6CN(c6cc(-c8ccccc8O)nnc6N)C7)C4)C5)CC3)no2)C(C)C)cc1 [Compound 35, (2S,4R)-1-[(2R)-2-{3-[4-({2-[(2S)-2-({3-[3-amino-6-(2-hydroxyphenyl)pyridazin-4-yl]-3,8-diazabicyclo[3.2.1]octan-8-yl}methyl)morpholin-4-yl]-7-azaspiro[3.5]nonan-7-yl}methyl)piperidin-1-yl]-1,2-oxazol-5-yl}-3-methylbutanoyl]-4-hydroxy-N-[(1S)-1-[4-(4-methyl-1,3-thiazol-5-yl)phenyl]ethyl]pyrrolidine-2-carboxamide] | < 2.5 | > 75 |
| CC(C)[C@H](C(=O)N1C[C@H](O)C[C@H]1C(=O)N[C@@H](C)c1ccc(C#N)cc1)c1cc(N2CCC(OCCN3CCC(Oc4cc(N5CCN(c6cc(-c7ccccc7O)nnc6N)CC5)ccn4)CC3)CC2)no1 [Compound 154, (2S,4R)-1-[(2S)-2-{3-[4-(2-{4-[(4-{4-[3-amino-6-(2-hydroxyphenyl)pyridazin-4-yl]piperazin-1-yl}pyridin-2-yl)oxy]piperidin-1-yl}ethoxy)piperidin-1-yl]-1,2-oxazol-5-yl}-3-methylbutanoyl]-N-[(1S)-1-(4-cyanophenyl)ethyl]-4-hydroxypyrrolidine-2-carboxamide] | ≥ 30 | – |
| CC(C)[C@@H](C(=O)N1C[C@H](O)C[C@H]1C(=O)N[C@@H](C)c1ccc(-c2ccnn2C)cc1)c1cc(N2CCC(CN3CCC(Oc4cc(/C=C(\F)c5cc(-c6ccccc6O)nnc5N)ccn4)CC3)CC2)no1 [Compound 52, (2S,4R)-1-[(2R)-2-{3-[4-({4-[(4-{2-[3-amino-6-(2-hydroxyphenyl)pyridazin-4-yl]-2-fluoroethenyl}pyridin-2-yl)oxy]piperidin-1-yl}methyl)piperidin-1-yl]-1,2-oxazol-5-yl}-3-methylbutanoyl]-4-hydroxy-N-[(1S)-1-[4-(1-methyl-1H-pyrazol-5-yl)phenyl]ethyl]pyrrolidine-2-carboxamide] | < 2.5 | > 75 |
| Cc1ncsc1-c1ccc([C@H](C)NC(=O)[C@@H]2C[C@@H](O)CN2C(=O)[C@H](c2cc(N3CCC(C4(N5CCC(O[C@H]6C[C@H](Oc7cc(N8C9CCC8CN(c8cc(-c%10ccccc%10O)nnc8N)C9)ccn7)C6)CC5)CC4)CC3)no2)C(C)C)cc1 [Compound 13, (2S,4R)-4-hydroxy-N-[(3S)-3-[4-(4-methyl-3,3-thiazol-5-yl)phenyl]ethyl]-3-[(2S)-3-methyl-2-{3-[4-(3-{4-[(1r,3r)-3-[(4-{3-[3-amino-6-(2-hydroxyphenyl)pyridazin-4-yl]-3,8-diazabicyclo[3.2.3]octan-8-yl}pyridin-2-yl)oxy]cyclobutoxy]piperidin-1-yl}cyclopropyl)piperidin-1-yl]-1,2-oxazol-5-yl}butanoyl]pyrrolidine-2-carboxamide] | ≥ 30 | – |
| Cc1ncsc1-c1ccc([C@H](C)NC(=O)[C@@H]2C[C@@H](O)CN2C(=O)[C@@H](c2cc(N3CCC(CN4CCC5(CC4)CC(N4CCO[C@@H]([C@H](C)n6cc(C#Cc7cc(-c8ccccc8O)nnc7N)cn6)C4)C5)CC3)no2)C(C)C)cc1 [Compound 97, (2S,4R)-1-[(2R)-2-{3-[4-({2-[(2R)-2-[(1S)-1-(4-{2-[3-amino-6-(2-hydroxyphenyl)pyridazin-4-yl]ethynyl}-1H-pyrazol-1-yl)ethyl]morpholin-4-yl]-7-azaspiro[3.5]nonan-7-yl}methyl)piperidin-1-yl]-1,2-oxazol-5-yl}-3-methylbutanoyl]-4-hydroxy-N-[(1S)-1-[4-(4-methyl-1,3-thiazol-5-yl)phenyl]ethyl]pyrrolidine-2-carboxamide] | < 2.5 | > 75 |
| Cc1ncsc1-c1ccc([C@H](C)NC(=O)[C@@H]2C[C@@H](O)CN2C(=O)[C@@H](c2cc(N3CCC(CN4CCC5(CC4)CC(N4CCN(C)[C@H](CN6C7CCC6CN(c6cc(-c8ccccc8O)nnc6N)C7)C4)C5)CC3)no2)C(C)C)cc1 [Compound 132, (2S,4R)-1-[(2R)-2-{3-[4-({2-[(3S)-3-({3-[3-amino-6-(2-hydroxyphenyl)pyridazin-4-yl]-3,8-diazabicyclo[3.2.1]octan-8-yl}methyl)-4-methylpiperazin-1-yl]-7-azaspiro[3.5]nonan-7-yl}methyl)piperidin-1-yl]-1,2-oxazol-5-yl}-3-methylbutanoyl]-4-hydroxy-N-[(1S)-1-[4-(4-methyl-1,3-thiazol-5-yl)phenyl]ethyl]pyrrolidine-2-carboxamide] | < 2.5 | > 75 |
| Cc1ncsc1-c1ccc([C@H](C)NC(=O)[C@@H]2C[C@@H](O)CN2C(=O)[C@@H](c2cc(N3CCC(CN4CCC5(CC4)CC(N4CCC(C(=O)N6C7CCC6CN(c6cc(-c8ccccc8O)nnc6N)C7)CC4)C5)CC3)no2)C(C)C)cc1 [Compound 58, (2S,4R)-1-[(2R)-2-[3-(4-{[2-(4-{3-[3-amino-6-(2-hydroxyphenyl)pyridazin-4-yl]-3,8-diazabicyclo[3.2.1]octane-8-carbonyl}piperidin-1-yl)-7-azaspiro[3.5]nonan-7-yl]methyl}piperidin-1-yl)-1,2-oxazol-5-yl]-3-methylbutanoyl]-4-hydroxy-N-[(1S)-1-[4-(4-methyl-1,3-thiazol-5-yl)phenyl]ethyl]pyrrolidine-2-carboxamide] | < 2.5 | > 75 |
| Cc1ncsc1-c1ccc([C@H](C)NC(=O)[C@@H]2C[C@@H](O)CN2C(=O)[C@@H](c2cc(N3CCC(CN4CC[C@@H](OC(=O)N5CCN(c6cc(-c7ccccc7O)nnc6N)CC5)[C@@H](F)C4)CC3)no2)C(C)C)cc1 [Compound 101, (3S,4R)-3-fluoro-1-[(1-{5-[(2R)-1-[(2S,4R)-4-hydroxy-2-{[(1S)-1-[4-(4-methyl-1,3-thiazol-5-yl)phenyl]ethyl]carbamoyl}pyrrolidin-1-yl]-3-methyl-1-oxobutan-2-yl]-1,2-oxazol-3-yl}piperidin-4-yl)methyl]piperidin-4-yl 4-[3-amino-6-(2-hydroxyphenyl)pyridazin-4-yl]piperazine-1-carboxylate] | < 2.5 | > 75 |
